Test results from US20060188866A1, “Diaminophenothiazine compositions and uses thereof” (Children's Hospital Oakland Research Institute, priority 2005, published 2006).

What was measured:
IMR90 cells [1] = assay: Replicative life span of IMR90 cells (population doubling level)
mitochondrial complex IV = assay: Level of mitochondrial complex IV in IMR90 cells (subunit II antibody, western blotting)
IMR90 cells [2] = assay: H2O2-induced senescence of methylene blue-treated IMR90 cells; type: cell-based, human; conditions: continuous 100 nM; 10 μM H2O2
Experimental: In another experiment, the effect of hydrogen peroxide (H2O2) on senescence of methylene blue-treated cells was tested. IMR90 cells were seeded at an initial density of 0.5×10^6/dish and grown for two weeks in the presence of methylene blue prior to H2O2 treatment. Thereafter, cells were harvested weekly, counted, and seeded with or without methylene blue and/or 10 μM H2O2. Cells that were treated with hydrogen peroxide without methylene blue treatment had accelerated senescence. The H2O2-induced senescence was prevented when these cells were continuously treated with 100 nM methylene blue.

[3] = 300 mg/day for one year; cited from earlier work
[4] = 65 mg three times a day; cited from earlier work
[5] = rats; injected 1 mg/kg; cited from earlier work

Compound | effect on senescence (replicative life span) (IMR90 cells [1]; 100 nM, IMR90 cells) | effect on level of complex IV (mitochondrial complex IV; IMR90 cells after treatment) | H2O2-induced senescence (IMR90 cells [2]) | depression compared with 15 mg/day placebo [3] | management of chronic renal calculous disease [4] | brain oxidative metabolism [5] | memory retention [5] | increase in PDL (IMR90 cells [1]; IMR90 cells seeded in 5% oxygen) | delay of senescence (IMR90 cells [1]; IMR90 cells seeded in air) | optimal concentration for delaying senescence (IMR90 cells [1]; IMR90 cells seeded in air) [nM] | effect on complex IV (mitochondrial complex IV; 1000 nM, IMR90 cells) | increase in level of complex IV above age-matched controls (mitochondrial complex IV; IMR90 cells)
Nc1ccc2nc3ccc(N)cc3[s+]c2c1 [thionine] | effective | increase in complex IV | – | – | – | – | – | – | – | – | – | –
CN(C)c1ccc2nc3ccc(=[N+](C)C)cc-3sc2c1 [methylene blue] | – | – | prevented | significantly less depressed | useful | improved | improved | 10-15 | 25-30 population doublings | 10 to 100 | caused removal of complex IV from the mitochondria | approximately 30%
